Measured values reported in the NIST ThermoML archive (doi:10.1016/j.jct.2019.03.025).
Numbers after ± are expanded uncertainties.

Conditions: Liquid, Vibrating tube method

Cc1cccc(C)c1 [1,3-dimethylbenzene]
mass density [kg/m3]
Conditions	293.15 K	303.15 K	313.15 K	323.15 K	333.15 K	343.15 K	353.15 K	363.15 K
100 kPa	864.2 ± 0.9	855 ± 0.9	846.7 ± 0.9	837.7 ± 0.9	829 ± 0.9	820 ± 0.9	811.3 ± 0.8	802.2 ± 0.8
1000 kPa	864.4 ± 0.9	855.4 ± 0.9	846.9 ± 0.9	838.6 ± 0.9	829.8 ± 0.9	821.1 ± 0.9	812.2 ± 0.8	803.3 ± 0.8
3000 kPa	865.8 ± 0.9	857.5 ± 0.9	848.6 ± 0.9	840.2 ± 0.9	831.7 ± 0.9	823 ± 0.9	814.3 ± 0.9	805.5 ± 0.8
5000 kPa	866.9 ± 0.9	858.8 ± 0.9	850.1 ± 0.9	841.9 ± 0.9	833.4 ± 0.9	825 ± 0.9	816.2 ± 0.9	807.6 ± 0.8
10000 kPa	870.5 ± 0.9	862.3 ± 0.9	854 ± 0.9	845.9 ± 0.9	837.6 ± 0.9	829.4 ± 0.9	821 ± 0.9	812.4 ± 0.9
15000 kPa	873.8 ± 0.9	865.8 ± 0.9	857.6 ± 0.9	849.8 ± 0.9	841.6 ± 0.9	833.6 ± 0.9	825.7 ± 0.9	817.6 ± 0.9
20000 kPa	877 ± 0.9	869 ± 0.9	861.1 ± 0.9	853.6 ± 0.9	845.6 ± 0.9	837.9 ± 0.9	829.8 ± 0.9	821.8 ± 0.9
25000 kPa	880.2 ± 0.9	872.2 ± 0.9	864.5 ± 0.9	857 ± 0.9	849.3 ± 0.9	841.7 ± 0.9	834 ± 0.9	826 ± 0.9
30000 kPa	883.2 ± 0.9	875.3 ± 0.9	867.7 ± 0.9	860.4 ± 0.9	852.8 ± 0.9	845.5 ± 0.9	838 ± 0.9	830.2 ± 0.9
35000 kPa	886 ± 1	878.2 ± 1	870.9 ± 0.9	863.7 ± 0.9	856.2 ± 0.9	849.2 ± 0.9	841.7 ± 0.9	834.2 ± 0.9
40000 kPa	888.7 ± 1	881 ± 1	873.8 ± 1	866.9 ± 1	859.7 ± 1	852.5 ± 1	845.3 ± 1	838.1 ± 0.9
50000 kPa	894.4 ± 1	886.7 ± 1	879.8 ± 1	873 ± 1	866 ± 1	859.1 ± 1	852.1 ± 1	845.2 ± 1
60000 kPa	899.1 ± 1	892 ± 1	885.1 ± 1	878.8 ± 1	871.9 ± 1	865 ± 1	858.5 ± 1	852 ± 1
